In one experiment the target is α3β2 nAChR (Rattus norvegicus, UniProt P04757+P12390). In words: cell-based. Type of experiment: cell-based.
The target of the next experiment is α6/α3β4 nAChR (Rattus norvegicus, UniProt P04757+P12392+P43143). In words: cell-based. Format: cell-based.
The target in the next experiment is α3β4 nAChR (Rattus norvegicus, UniProt P04757+P12392). In words: cell-based. Format: cell-based.
The next experiment concerns the target α6/α3β2β3 nAChR (Rattus norvegicus, UniProt P04757+P12390+P43143). In words: cell-based. Format: cell-based.
The target of another experiment is α7 nAChR (Rattus norvegicus, UniProt Q05941). In words: cell-based. Type of experiment: cell-based.
Sequence of α7 nAChR (Q05941 23-502 limits assumed): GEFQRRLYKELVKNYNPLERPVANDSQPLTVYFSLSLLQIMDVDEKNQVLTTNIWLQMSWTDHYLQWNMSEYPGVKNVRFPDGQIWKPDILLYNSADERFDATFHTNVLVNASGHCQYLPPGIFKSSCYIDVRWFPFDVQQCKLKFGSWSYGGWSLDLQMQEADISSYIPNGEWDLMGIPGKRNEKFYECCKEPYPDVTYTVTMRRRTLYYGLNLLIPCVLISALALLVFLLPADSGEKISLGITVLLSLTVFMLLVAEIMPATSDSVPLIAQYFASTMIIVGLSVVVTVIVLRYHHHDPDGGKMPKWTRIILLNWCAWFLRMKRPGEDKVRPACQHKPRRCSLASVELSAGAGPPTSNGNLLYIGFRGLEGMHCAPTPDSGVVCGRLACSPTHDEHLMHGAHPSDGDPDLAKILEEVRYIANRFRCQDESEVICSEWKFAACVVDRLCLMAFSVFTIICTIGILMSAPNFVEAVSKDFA
Another experiment concerns the target α9α10 nAChR (Rattus norvegicus, UniProt P43144+Q9JLB5). In words: cell-based.
A further experiment concerns the target α2β2 nAChR (Rattus norvegicus, UniProt P12389+P12390). In words: cell-based. Format: cell-based.
For a further experiment, the target named is α4β2 nAChR (Rattus norvegicus, UniProt P09483+P12390). In words: cell-based.
The next experiment has as its target α4β4 nAChR (Rattus norvegicus, UniProt P09483+P12392). In words: cell-based. Format: cell-based.
Experiment [1] concerns the target human α3β2 nAChR (Homo sapiens, UniProt P17787+P32297). Format: cell-based.
A further experiment deals with human α6/α3β2β3 nAChR (Homo sapiens, UniProt P17787+P32297+Q15825). In words: cell-based. Format: cell-based.
A further experiment deals with α3β2[F119Q] nAChR mutant (Rattus norvegicus, UniProt P04757+P12390, F143Q). Format: cell-based.
Sequence of α3β2[F119Q] nAChR mutant (P04757 26-499 limits assumed, stated change not applied): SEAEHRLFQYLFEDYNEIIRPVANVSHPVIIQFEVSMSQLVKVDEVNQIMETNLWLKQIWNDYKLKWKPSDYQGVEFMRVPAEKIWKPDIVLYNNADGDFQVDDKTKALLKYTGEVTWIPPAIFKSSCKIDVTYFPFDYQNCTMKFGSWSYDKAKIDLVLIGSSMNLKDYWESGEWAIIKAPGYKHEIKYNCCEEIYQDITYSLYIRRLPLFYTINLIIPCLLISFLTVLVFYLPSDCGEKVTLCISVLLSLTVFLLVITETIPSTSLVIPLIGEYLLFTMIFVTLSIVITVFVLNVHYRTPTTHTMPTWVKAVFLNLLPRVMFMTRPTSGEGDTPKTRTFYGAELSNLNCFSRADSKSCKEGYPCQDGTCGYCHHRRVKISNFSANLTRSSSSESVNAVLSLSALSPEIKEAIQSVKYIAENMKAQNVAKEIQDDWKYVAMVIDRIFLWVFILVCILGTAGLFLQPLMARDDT
Sequence of α3β2[F119Q] nAChR mutant (P12390 25-500 F143Q limits assumed, stated change not applied): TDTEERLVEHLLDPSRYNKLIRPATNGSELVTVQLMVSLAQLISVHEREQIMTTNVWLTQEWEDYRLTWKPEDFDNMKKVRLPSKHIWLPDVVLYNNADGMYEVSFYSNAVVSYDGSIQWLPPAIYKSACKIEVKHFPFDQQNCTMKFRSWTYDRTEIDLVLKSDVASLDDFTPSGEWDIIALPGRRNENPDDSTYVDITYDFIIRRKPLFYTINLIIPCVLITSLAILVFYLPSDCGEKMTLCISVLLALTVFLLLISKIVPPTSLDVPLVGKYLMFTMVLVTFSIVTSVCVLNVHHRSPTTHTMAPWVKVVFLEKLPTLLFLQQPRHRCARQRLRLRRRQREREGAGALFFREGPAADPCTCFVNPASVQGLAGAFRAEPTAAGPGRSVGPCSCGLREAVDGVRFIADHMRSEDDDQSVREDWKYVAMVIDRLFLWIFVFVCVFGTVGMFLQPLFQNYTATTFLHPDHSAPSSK
The next experiment has as its target α3β2[T59K] nAChR mutant (Rattus norvegicus, UniProt P04757+P12390, T83K). Type of experiment: cell-based.
The next experiment deals with α3β2[T59L] nAChR mutant (Rattus norvegicus, UniProt P04757+P12390, T83L). Type of experiment: cell-based.
Sequence of α3β2[T59L] nAChR mutant (P04757 26-499 limits assumed, stated change not applied): as the sequence (P04757 26-499 limits assumed, stated change not applied) above
Sequence of α3β2[T59L] nAChR mutant (P12390 25-500 T83L limits assumed, stated change not applied): as the sequence (P12390 25-500 F143Q limits assumed, stated change not applied) above, with T59L, Q119F counted along it
The target of another experiment is α3β2[Q34A] nAChR mutant (Rattus norvegicus, UniProt P04757+P12390, Q58A). Format: cell-based.
The target of another experiment is α3β2[K79A] nAChR mutant (Rattus norvegicus, UniProt P04757+P12390, K103A). Format: cell-based.
In a further experiment the target is α3β2[T59I] nAChR mutant (Rattus norvegicus, UniProt P04757+P12390, T83I). Format: cell-based.
The next experiment deals with α3β2[V111I] nAChR mutant (Rattus norvegicus, UniProt P04757+P12390, V135I). Format: cell-based.
Sequence of α3β2[V111I] nAChR mutant (P04757 26-499 limits assumed, stated change not applied): as the sequence (P04757 26-499 limits assumed, stated change not applied) above
Sequence of α3β2[V111I] nAChR mutant (P12390 25-500 V135I limits assumed, stated change not applied): as the sequence (P12390 25-500 F143Q limits assumed, stated change not applied) above, with V111I, Q119F counted along it
Experiment [2] has as its system Chronic Constriction Injury model of ischiadic nerve (neuralgia). Conditions: rat, in vivo.
Experiment [3] deals with hot-plate pain threshold in Kunming mice. Conditions: mouse, in vivo.
The target in experiment [4] is α3β4 acetylcholine receptor. The settings on record: read-out: half-blocking dose IC50; cited from earlier work.
The target of experiment [5] is α3β2 acetylcholine receptor (Homo sapiens, UniProt P17787+P32297). Conditions: read-out: half-blocking dose IC50; cited from earlier work.
Experiment [6] addresses α7 acetylcholine receptor (Homo sapiens, UniProt P36544). Conditions: read-out: half-blocking dose IC50; cited from earlier work.
The test system of another experiment is α7/5HT3 chimera. Conditions: read-out: half-blocking dose IC50; cited from earlier work.
Experiment [7] deals with α9α10 acetylcholine receptor (Homo sapiens, UniProt Q9GZZ6+Q9UGM1). The settings on record: read-out: half-blocking dose IC50; cited from earlier work.
For experiment [8], the target named is α4β2 acetylcholine receptor (Homo sapiens, UniProt P17787+P43681). Conditions: read-out: half-blocking dose IC50; cited from earlier work.
Experiment [9] has as its target α6/α3β2β3 acetylcholine receptor. The settings on record: read-out: half-blocking dose IC50; cited from earlier work.
Experiment [10] concerns the target α6/α3β4 acetylcholine receptor. Conditions: read-out: half-blocking dose IC50; cited from earlier work.
Experiment [11] concerns the target α4β4 acetylcholine receptor (Homo sapiens, UniProt P30926+P43681). Conditions: read-out: half-blocking dose IC50; cited from earlier work.
Experiment [12] concerns the target α2β4 acetylcholine receptor (Homo sapiens, UniProt P30926+Q15822). The settings on record: read-out: half-blocking dose IC50; cited from earlier work.
In another experiment the target is rat α2β4 nAChR (rat, UniProt P12389). In words: cell-based or functional assay.
Another experiment deals with rat α9α10 nAChR (rat, UniProt P43144). In words: cell-based or functional assay.
The next experiment addresses rat α2β2 nAChR (rat, UniProt P12389). In words: cell-based or functional assay.
The next experiment deals with rat α4β2 nAChR (rat, UniProt P09483). In words: cell-based or functional assay.
The target in a further experiment is rat α4β4 nAChR (rat, UniProt P09483). In words: cell-based or functional assay.
Experiment [13] addresses human α3β2 nAChR (human, UniProt P32297). In words: cell-based or functional assay.
For the next experiment, the target named is rat α7 nAChR (rat, UniProt Q05941). In words: cell-based or functional assay.
[14] abbreviates: read-out: IC50 (half-blocking dose).

Broadly, the IC50 is the concentration at which inhibition is half-maximal.

“And” between values parts separate entries of the source, which are not always exact repeats. Equal entries are not always repeated. “Also recorded” adds a separate entry of the source. Where two headings read alike, the source gives them in different places. Where no end group is shown, it is not given here.

Sequence of α3β2[T59K] nAChR mutant (P04757 26-499 limits assumed, stated change not applied): as the sequence (P04757 26-499 limits assumed, stated change not applied) above
Sequence of α3β2[T59K] nAChR mutant (P12390 25-500 T83K limits assumed, stated change not applied): as the sequence (P12390 25-500 F143Q limits assumed, stated change not applied) above, with T59K, Q119F counted along it
Sequence of α7 acetylcholine receptor (P36544 23-502 limits assumed): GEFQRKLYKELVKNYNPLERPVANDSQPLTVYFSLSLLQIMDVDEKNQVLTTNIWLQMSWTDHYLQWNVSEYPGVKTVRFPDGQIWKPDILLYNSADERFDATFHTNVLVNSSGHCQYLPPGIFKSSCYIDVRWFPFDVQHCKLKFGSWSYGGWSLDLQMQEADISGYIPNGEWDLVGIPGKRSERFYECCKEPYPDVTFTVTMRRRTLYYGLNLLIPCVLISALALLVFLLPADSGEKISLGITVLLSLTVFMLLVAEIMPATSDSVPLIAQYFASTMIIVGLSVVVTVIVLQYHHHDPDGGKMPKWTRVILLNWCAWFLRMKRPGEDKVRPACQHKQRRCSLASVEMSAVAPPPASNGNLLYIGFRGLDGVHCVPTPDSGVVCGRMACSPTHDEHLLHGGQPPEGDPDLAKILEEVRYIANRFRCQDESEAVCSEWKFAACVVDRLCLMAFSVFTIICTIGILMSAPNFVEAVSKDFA

Consider `CC[C@H](C)[C@@H]1NC(=O)[C@H](CCC(=O)O)NC(=O)[C@@H]2CCCN2C(=O)[C@H](Cc2cnc[nH]2)NC(=O)[C@H](CC(=O)O)NC(=O)[C@H](C(C)C)NC(=O)[C@H](CC(N)=O)NC(=O)[C@@H]2CSSC[C@H](NC(=O)CN)C(=O)N[C@@H](CSSC[C@@H](C(N)=O)NC1=O)C(=O)N[C@@H](CO)C(=O)N[C@@H](Cc1cnc[nH]1)C(=O)N1CCC[C@H]1C(=O)N[C@@H](C)C(=O)N2` [LvIA/LvD21], for which, at α3β2 nAChR, the “% of recovered current within elution time” value came to 100%. Moreover, the “Hill slope of dose-response curve” value at α3β2 nAChR was 1.17 (0.88-1.46); on α6/α3β4 nAChR, 0.94 (0.66-1.22); at α3β4 nAChR, 1.14 (0.72-1.55); on α6/α3β2β3 nAChR it was 0.60(0.48-0.72); on α7 nAChR, 0.65 (0.43-0.87); at human α3β2 nAChR [1], 0.81 (0.44-1.18). Also, at human α6/α3β2β3 nAChR, the “Hill slope of dose-response curve” value is recorded as 0.85 (0.55-1.15). The “Hill slope of dose-response curves” value was 1.17(0.79-1.54) on α3β2 nAChR; 1.12(0.79-1.44) on α3β2[F119Q] nAChR mutant; 0.80(0.47-1.13) at α3β2[T59K] nAChR mutant; 1.07(0.77-1.37) at α3β2[T59L] nAChR mutant; 0.90(0.22-1.58) at α3β2[Q34A] nAChR mutant; 0.86(0.43-1.30) at α3β2[K79A] nAChR mutant. The “Hill slope of dose-response curves” value on α3β2[T59I] nAChR mutant is 1.15(0.43-1.86); on α3β2[V111I] nAChR mutant, 1.31(0.66-1.96). Also, the “blocking activity to α3β2 times higher than to α6/α3β2β3” value is on record as roughly 100 times on α3β2 nAChR and roughly 305 times on human α3β2 nAChR [1]. Also, the “blocking of ACh-gated current” value is reported as “specifically blocks; also recorded: completely blocks” at α3β2 nAChR and “totally does not block; also recorded: no blocking activity” at α2β2 nAChR. Besides, the current blocked result at α3β2 nAChR is reported as “about 50%”; at α3β2[F119Q] nAChR mutant, “blocked all current”; at α3β2[T59K] nAChR mutant it was “blocked all current”; on α3β2[V111I] nAChR mutant, “does not block at all; also recorded: totally did not block”. Further, the “time to complete elution after block” value on α3β2 nAChR is listed as no more than 2 min. Further, the IC50 on α9α10 nAChR, at α9α10 nAChR (setting [14]), against α2β2 nAChR, on α2β2 nAChR (setting [14]), against α4β2 nAChR and at α4β2 nAChR (setting [14]) was greater than 10000 nM each time. Besides, the 50% inhibitory concentration (IC50) is greater than 10000 nM on α4β4 nAChR, greater than 10000 nM on α4β4 nAChR (setting [14]) and 5340 nM on human α6/α3β2β3 nAChR. Besides, the “Elution time after blocking” value on α3β2[F119Q] nAChR mutant is 12 min and 10 to 12 min; at α3β2[T59K] nAChR mutant, 20 min; at α3β2[T59L] nAChR mutant it was 5 to 8 min; on α3β2[Q34A] nAChR mutant it was 2 to 3 min; on α3β2[K79A] nAChR mutant it was 1 min; at α3β2[T59I] nAChR mutant, 2 min. Also, the “Elution time after blocking” value at α3β2[V111I] nAChR mutant is recorded as 1 min. In addition, the “blocking activity times higher than that to wild type α3β2 nAChR” value at α3β2[F119Q] nAChR mutant came to 25 times; at α3β2[T59K] nAChR mutant, 15 times; at α3β2[T59L] nAChR mutant it was 7 times. Further, the “analgesic effect on neuralgia” value in [2] is given as “potent analgesic effects”. Moreover, in experiment [2], the “analgesic effect times higher than that of morphine, same weight and dose” value was 823-1176 times. Also, the entries for the “average analgesic value (Mechanical Threshold, % of basal)” value in [2] and in experiment [2] (ip) were 160% and “up to 200%”, respectively. Besides, the “mechanical threshold after withdrawal” value in experiment [2] is reported as “significantly higher than that of morphine group”. Also, the analgesic value result in experiment [2] (ip) is “far higher than morphine”. Moreover, the “analgesic value in some cases (Mechanical Threshold, % of basal)” value in experiment [2] (ip) is reported as “up to 200%”. Further, in experiment [3], the “analgesic effect times higher than that of morphine, same weight and dosage” value is reported as 764-882 times. Also, the pain threshold in experiment [3] amounted to 30 s. The “pain threshold in comparison with the pain threshold of morphine” value in experiment [3] is 1.3-1.5 times and 1.3 times.
Regarding GCCSDPRCAWR----C* [ImI], the IC50 in [4] was 3390 nM; in experiment [5], 41 nM; in experiment [6] it was 595 nM; in the experiment with α7/5HT3 chimera, 217 nM; in experiment [7] it was 2000 nM.
Turning to GCCSHPACAGNNQHIC* [GIC], the half-inhibitory concentration (IC50) in [4] is 755 nM; in experiment [5], 1.1 nM; in experiment [8], 309 nM.
With GCCSTPPCAVLY---C* [BuIA], the IC50 is 27.7 nM in experiment [4]; 0.26 to 0.46 nM in [9]; 1.54 to 2.1 nM in [10]; 5.72 nM in [5]; 69.9 nM in experiment [11]; 121 nM in [12]. Moreover, the half-inhibitory concentration (IC50) in experiment [6] is 272 nM.
As to GCCSHPACNVDHPEIC (not fully specified; ends and bridges not checked) [α-conotoxin LvIA/LvD21], the “IC50 (half-blocking dose) on ACh-gated current” value with rat α2β4 nAChR is 15500 nM; with rat α9α10 nAChR it was greater than 10000 nM; with rat α2β2 nAChR, greater than 10000 nM; in the experiment with rat α4β2 nAChR it was greater than 10000 nM; with rat α4β4 nAChR, greater than 10000 nM; with human α3β2 nAChR [13], 17.5 nM. In addition, the “IC50 (half-blocking dose) on ACh-gated current” value with rat α7 nAChR came out at 3000 nM.

These data come from patent US9469674B2 (HAINAN UNIVERSITY, dated 2016).
